{
  "source": "ChEMBL document CHEMBL1201862",
  "about": "“PubChem BioAssay data set” (2004)",
  "key": {"[1]": {"molecular_target": "E3 ubiquitin-protein ligase Mdm2 (Homo sapiens, UniProt Q00987)", "sequence (Q00987 whole entry)": "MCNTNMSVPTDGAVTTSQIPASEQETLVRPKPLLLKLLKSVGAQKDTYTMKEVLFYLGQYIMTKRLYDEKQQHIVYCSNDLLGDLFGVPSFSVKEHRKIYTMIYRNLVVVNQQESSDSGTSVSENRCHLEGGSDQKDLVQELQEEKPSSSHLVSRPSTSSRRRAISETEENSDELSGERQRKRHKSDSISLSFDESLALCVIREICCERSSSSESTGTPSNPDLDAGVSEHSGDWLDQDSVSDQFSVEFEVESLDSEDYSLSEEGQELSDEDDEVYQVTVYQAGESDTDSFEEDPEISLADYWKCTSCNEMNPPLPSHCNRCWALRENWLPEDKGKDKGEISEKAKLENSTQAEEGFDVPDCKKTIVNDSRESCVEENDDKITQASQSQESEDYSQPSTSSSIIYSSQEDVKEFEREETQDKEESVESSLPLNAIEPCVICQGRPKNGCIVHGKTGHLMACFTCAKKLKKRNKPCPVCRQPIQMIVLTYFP", "test": "MDM2-luc reporter signal enhancers, multi-concentration potency testing, MDM2 ubiquitin-protein ligase inhibitor program, whole-cell format, luminescence detection, 384-well microplate (AID 1394);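 further: MDM2 E3 inhibitors raise luminescence so EC50 is for signal enhancement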", "assay_type": "functional"}, "[2]": {"test": "HIV-1 Vif–A3G interaction blockers – biochemical, TR-FRET, GST-Vif 1-94, biotin-A3G peptide, dose response retest, primary screen (AID 1117319);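 further: TR-FRET signal of purified GST-Vif binding a biotinylated A3G peptide; inhibitors lower the FRET signal by blocking Vif and A3G binding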", "assay_type": "functional"}, "[3]": {"test": "A cytotoxicity screen of small molecule inhibitors of the PhoP region in Salmonella typhi identified in the primary screen. [Related pubchem assays: 1850, 1864, 1985 ]", "assay_type": "functional"}, "[4]": {"molecular_target": "T1, Leucine aminopeptidase (Plasmodium falciparum 3D7, UniProt Q8IL11)", "T1 sequence (Q8IL11 whole entry)": "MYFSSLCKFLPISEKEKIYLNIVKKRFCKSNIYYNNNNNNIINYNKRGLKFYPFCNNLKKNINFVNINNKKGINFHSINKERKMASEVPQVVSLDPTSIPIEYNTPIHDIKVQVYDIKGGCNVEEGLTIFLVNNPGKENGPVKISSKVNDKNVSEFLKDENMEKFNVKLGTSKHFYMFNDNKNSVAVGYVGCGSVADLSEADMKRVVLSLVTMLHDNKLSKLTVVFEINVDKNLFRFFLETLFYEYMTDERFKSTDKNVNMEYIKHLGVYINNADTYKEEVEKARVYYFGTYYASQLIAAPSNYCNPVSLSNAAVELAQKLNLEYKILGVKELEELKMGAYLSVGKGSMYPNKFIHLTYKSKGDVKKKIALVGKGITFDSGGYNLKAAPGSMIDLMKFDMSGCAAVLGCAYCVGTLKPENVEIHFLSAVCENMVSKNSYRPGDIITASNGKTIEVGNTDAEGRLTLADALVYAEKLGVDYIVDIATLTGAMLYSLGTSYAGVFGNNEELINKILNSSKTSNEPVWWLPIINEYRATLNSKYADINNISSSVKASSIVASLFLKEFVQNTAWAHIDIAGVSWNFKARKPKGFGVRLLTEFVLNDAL", "test": "P. falciparum M17LAP inhibitors, primary screen, biochemical, fluorogenic H-Leu-NHMec substrate, 1536-well (AID 1619)", "assay_type": "functional"}, "[5]": {"molecular_target": "T2, Aspartyl aminopeptidase (Plasmodium falciparum 3D7, UniProt Q8I2J3)", "T2 sequence (Q8I2J3 whole entry)": "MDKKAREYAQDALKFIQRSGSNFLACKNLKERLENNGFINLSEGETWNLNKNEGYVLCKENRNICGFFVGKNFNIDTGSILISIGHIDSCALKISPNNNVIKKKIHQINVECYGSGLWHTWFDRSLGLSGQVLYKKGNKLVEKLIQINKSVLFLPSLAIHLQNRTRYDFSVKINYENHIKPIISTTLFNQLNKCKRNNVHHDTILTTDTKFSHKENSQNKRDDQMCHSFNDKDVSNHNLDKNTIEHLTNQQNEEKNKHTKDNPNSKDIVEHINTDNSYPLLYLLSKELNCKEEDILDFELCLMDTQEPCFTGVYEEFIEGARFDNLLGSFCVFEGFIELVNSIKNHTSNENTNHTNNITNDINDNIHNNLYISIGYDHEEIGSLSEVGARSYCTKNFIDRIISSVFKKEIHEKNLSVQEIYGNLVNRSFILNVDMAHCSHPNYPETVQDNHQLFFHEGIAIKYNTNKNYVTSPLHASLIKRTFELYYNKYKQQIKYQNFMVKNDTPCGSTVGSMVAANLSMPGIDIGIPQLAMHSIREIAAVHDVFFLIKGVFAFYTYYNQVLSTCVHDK", "test": "Counterscreen for inhibitors of M1 and M17 aminopeptidases: QFRET-based biochemical high throughput dose response assay for inhibitors of the Plasmodium falciparum M18 Aspartyl Aminopeptidase (PFM18AAP). [Related PubChem assays: 1619 (Screening assay (M17LAP inhibitors).), 1445 (Screening assay (M1AAP inhibitors).)]"}, "[6]": {"molecular_target": "Procathepsin L (Homo sapiens, UniProt P07711)", "sequence (P07711 whole entry)": "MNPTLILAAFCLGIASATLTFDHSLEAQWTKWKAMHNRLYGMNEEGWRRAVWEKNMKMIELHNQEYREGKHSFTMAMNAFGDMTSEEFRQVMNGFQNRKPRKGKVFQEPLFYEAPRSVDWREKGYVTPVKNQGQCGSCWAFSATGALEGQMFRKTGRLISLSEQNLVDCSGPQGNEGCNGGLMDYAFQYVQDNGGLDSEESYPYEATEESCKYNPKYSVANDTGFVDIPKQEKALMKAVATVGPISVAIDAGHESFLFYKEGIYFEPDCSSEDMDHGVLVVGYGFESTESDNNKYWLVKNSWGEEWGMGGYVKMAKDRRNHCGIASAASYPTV", "test": "CTSL1 protease inhibition – biochemical, QFRET, 1536-well, counter-screen for M1/M17 aminopeptidase inhibitor project, dose response (AID 2214)"}, "[7]": {"molecular_target": "T3, Protein Tat (Human immunodeficiency virus type 1 group M subtype B (isolate HXB2)(HIV-1), UniProt P04608)", "T3 sequence (P04608 whole entry)": "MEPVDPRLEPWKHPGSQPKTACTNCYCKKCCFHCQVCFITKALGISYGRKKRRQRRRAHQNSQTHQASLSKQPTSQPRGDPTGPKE", "assay_type": "functional"}, "[8]": {"test": "HCT116 cell viability decrease, GSK3B pretreatment – CellTiter-Glo, IC50, dose response (AID 1117339)", "assay_type": "functional", "conditions": "HCT-116"}, "[9]": {"test": "cytotoxicity toward HT-29 cells – cell-based, CellTiter-Glo luminescence, IC50, dose response (AID 1117330)", "assay_type": "functional"}, "[10]": {"test": "Reduced DLD-1 viability, concentration-response, CellTiter-Glo luminescence (AID 1117352)", "assay_type": "functional"}, "[11]": {"test": "SNU-C1 cell viability reduction, dose response, CellTiter-Glo luminescence (AID 1117323)", "assay_type": "functional, cell-based"}, "[12]": {"test": "cytotoxicity toward Colo320 cells – cell-based, CellTiter-Glo luminescence, IC50, dose response (AID 1117334)", "assay_type": "functional", "conditions": "COLO 320"}, "[13]": {"test": "CellTiter-Glo luminescence survival assay, SW480 colon tumor line, concentration-response curve, half-maximal inhibitory concentration (AID 1117338)", "assay_type": "functional"}, "[14]": {"test": "cytotoxicity toward HCT116 cells – cell-based, CellTiter-Glo luminescence, IC50, dose response (AID 1117332)", "assay_type": "functional", "conditions": "HCT-116"}, "[15]": {"test": "RKO cell viability reduction, dose response, CellTiter-Glo luminescence (AID 1117322)", "assay_type": "functional"}, "[16]": {"test": "OVCAR-3 cell viability loss – plate reader, dry powder samples, PAX8 inhibitor project, dose response (AID 743044)", "assay_type": "functional, cell-based"}, "[17]": {"test": "OVCAR8 cell viability loss – plate reader, dry powder samples, PAX8 project, dose response (AID 743197)", "assay_type": "functional, cell-based", "conditions": "OVCAR-8"}, "[18]": {"molecular_target": "Paired box protein Pax-8 (Homo sapiens, UniProt Q06710)", "sequence (Q06710 whole entry)": "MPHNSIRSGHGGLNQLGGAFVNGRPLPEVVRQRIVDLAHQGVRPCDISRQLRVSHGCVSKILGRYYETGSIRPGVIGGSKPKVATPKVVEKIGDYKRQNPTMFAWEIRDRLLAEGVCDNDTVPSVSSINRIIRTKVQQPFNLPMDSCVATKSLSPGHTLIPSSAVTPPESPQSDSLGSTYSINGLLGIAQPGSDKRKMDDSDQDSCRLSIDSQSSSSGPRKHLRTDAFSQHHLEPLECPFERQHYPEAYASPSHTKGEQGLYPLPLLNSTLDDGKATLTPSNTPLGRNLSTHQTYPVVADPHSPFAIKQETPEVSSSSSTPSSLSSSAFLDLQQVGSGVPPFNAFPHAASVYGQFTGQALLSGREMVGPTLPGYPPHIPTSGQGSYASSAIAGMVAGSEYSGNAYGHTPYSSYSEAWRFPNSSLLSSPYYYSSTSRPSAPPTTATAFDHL", "test": "PAX8 transcriptional activity inhibition in RMG-I – RMG-I cells, luciferase, cherry-pick, dose response (AID 687027);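 further: luciferase reporter driven by Pax8 target thyroperoxidase promoter measured by SteadyGlo luminescence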", "assay_type": "functional, cell-based"}, "[19]": {"test": "IGROV1 cell killing – plate reader, dry powder samples, PAX8 inhibitor project, dose response (AID 743043)", "assay_type": "functional, cell-based", "conditions": "IGROV-1"}, "[20]": {"test": "Late-stage results from the probe development effort to identify antagonists of arginine vasopressin receptor 1a (AVPR1a): fluorescence-based cell-based dose response AVPR1a inhibition assay.", "assay_type": "functional"}, "[21]": {"test": "Late-stage results from the probe development effort to identify antagonists of arginine vasopressin receptor 1a (AVPR1a): fluorescence-based cell-based dose response OXTR inhibition counterscreen assay.", "assay_type": "functional"}, "[22]": {"molecular_target": "Vasopressin V2 receptor (Homo sapiens, UniProt P30518)", "sequence (P30518 whole entry)": "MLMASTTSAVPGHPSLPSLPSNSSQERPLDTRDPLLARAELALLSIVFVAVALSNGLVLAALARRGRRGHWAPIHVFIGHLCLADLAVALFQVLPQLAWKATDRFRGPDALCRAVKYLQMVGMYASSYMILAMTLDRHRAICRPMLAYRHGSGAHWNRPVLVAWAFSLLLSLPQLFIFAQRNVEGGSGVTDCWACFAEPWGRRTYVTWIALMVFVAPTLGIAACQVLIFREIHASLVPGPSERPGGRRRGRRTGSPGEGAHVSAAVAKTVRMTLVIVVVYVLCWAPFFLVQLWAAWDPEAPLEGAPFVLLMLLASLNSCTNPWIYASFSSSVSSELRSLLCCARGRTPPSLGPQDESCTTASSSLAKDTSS", "test": "Late-stage results from the probe development effort to identify antagonists of arginine vasopressin receptor 1a (AVPR1a): fluorescence-based cell-based dose response AVPR2 inhibition counterscreen assay.", "assay_type": "functional"}, "[23]": {"molecular_target": "Vasopressin V1b receptor (Homo sapiens, UniProt P47901)", "sequence (P47901 whole entry)": "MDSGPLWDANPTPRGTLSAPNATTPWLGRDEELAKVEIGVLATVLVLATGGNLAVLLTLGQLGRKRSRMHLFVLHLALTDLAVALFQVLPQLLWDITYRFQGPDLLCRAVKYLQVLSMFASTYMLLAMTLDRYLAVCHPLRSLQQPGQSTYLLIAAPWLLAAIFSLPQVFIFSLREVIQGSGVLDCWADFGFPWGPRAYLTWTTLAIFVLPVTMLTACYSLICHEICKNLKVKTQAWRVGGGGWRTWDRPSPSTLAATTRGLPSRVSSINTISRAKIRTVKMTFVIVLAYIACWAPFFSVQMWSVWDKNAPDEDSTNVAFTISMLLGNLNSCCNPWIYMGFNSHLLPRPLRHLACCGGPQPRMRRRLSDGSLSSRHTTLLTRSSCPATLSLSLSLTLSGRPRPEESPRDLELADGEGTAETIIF", "test": "Late-stage results from the probe development effort to identify antagonists of arginine vasopressin receptor 1a (AVPR1a): fluorescence-based cell-based dose response AVPR1b inhibition counterscreen assay.", "assay_type": "functional"}, "[24]": {"test": "Dd2 parasite growth inhibition in erythrocytes – SYBR Green, dry powder samples, set 9, dose response (AID 1159568)", "assay_type": "functional, cell-based"}, "[25]": {"test": "IC50 of insulin release inhibition, rat insulinoma INS-1E line, 5 mM glucose, cell-based (AID 1117331)", "assay_type": "functional"}, "[26]": {"molecular_target": "T4, Cytochrome P450 1A2 (Homo sapiens, UniProt P05177)", "T4 sequence (P05177 whole entry)": "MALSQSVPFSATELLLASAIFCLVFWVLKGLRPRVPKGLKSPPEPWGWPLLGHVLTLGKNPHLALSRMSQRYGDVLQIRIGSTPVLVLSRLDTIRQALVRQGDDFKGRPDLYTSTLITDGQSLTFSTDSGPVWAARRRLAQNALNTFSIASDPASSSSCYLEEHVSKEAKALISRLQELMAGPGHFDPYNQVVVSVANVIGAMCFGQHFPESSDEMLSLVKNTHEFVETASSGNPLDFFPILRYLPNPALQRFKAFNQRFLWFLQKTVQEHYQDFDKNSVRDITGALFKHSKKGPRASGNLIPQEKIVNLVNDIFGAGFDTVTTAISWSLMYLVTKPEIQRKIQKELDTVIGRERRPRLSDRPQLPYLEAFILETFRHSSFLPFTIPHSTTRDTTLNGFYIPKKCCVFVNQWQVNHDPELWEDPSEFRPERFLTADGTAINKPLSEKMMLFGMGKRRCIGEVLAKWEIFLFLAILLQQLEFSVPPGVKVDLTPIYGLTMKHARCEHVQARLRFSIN"}},
  "note": "Active and inactive are the calls of the source.",
  "data": [
    {"compound": "Cc1ccc(C)c(NC(=O)C(Sc2nnc(-c3cccs3)o2)c2ccccc2)c1", "note": "(stereo not given)", "values": [
      {"measurement": "EC50", "setting": "[1]", "value": "25 µM (not active)"}
    ]},
    {"compound": "COC(=O)c1ccc(CSc2nc3ccccc3c(=O)n2-c2ccc(OC)c(OC)c2)o1", "values": [
      {"measurement": "IC50", "setting": "[2]", "value": "> 100 µM (active)"},
      {"measurement": "EC50", "setting": "[3]", "value": "> 50 µM (active)"}
    ]},
    {"compound": "Cc1cccc(Nc2nnc(SC3CCOC3=O)s2)c1C", "note": "(stereo not given)", "values": [
      {"measurement": "IC50", "setting": "[4]", "value": "2.23 µM (active)"},
      {"measurement": "IC50", "setting": "[5]", "value": "> 73.5 µM (not active)"},
      {"measurement": "IC50", "setting": "[6]", "value": "> 59.6 µM (not active)"}
    ]},
    {"compound": "CCOc1ccc(Nc2nc3ccccc3n3nnnc23)cc1", "values": [
      {"measurement": "IC50", "setting": "[7]", "value": "> 100 µM (active)"},
      {"measurement": "IC50", "setting": "[2]", "value": "> 100 µM (active)"}
    ]},
    {"compound": "N=C(NN=Cc1ccc(Cl)cc1)NN=Cc1ccc(Cl)cc1", "values": [
      {"measurement": "IC50", "setting": "[8]", "value": "0.344 µM (active)"},
      {"measurement": "IC50", "setting": "[9]", "value": "0.681 µM (active)"},
      {"measurement": "IC50", "setting": "[10]", "value": "0.654 µM (active)"},
      {"measurement": "IC50", "setting": "[11]", "value": "0.28 µM (active)"},
      {"measurement": "IC50", "setting": "[12]", "value": "0.458 µM (active)"},
      {"measurement": "IC50", "setting": "[13]", "value": "0.225 µM (active)"},
      {"measurement": "IC50", "setting": "[14]", "value": "0.394 µM (active)"},
      {"measurement": "IC50", "setting": "[15]", "value": "0.47 µM (active)"}
    ]},
    {"compound": "Cc1ccc(S(=O)(=O)N(C)C[C@H]2OCCCC[C@H](C)Oc3ccc(NS(=O)(=O)c4ccc(F)cc4)cc3C(=O)N([C@H](C)CO)C[C@@H]2C)cc1", "values": [
      {"measurement": "AC50", "setting": "[16]", "value": "29.3 µM (active)"},
      {"measurement": "AC50", "setting": "[17]", "value": "> 70 µM (inactive)"},
      {"measurement": "AC50", "setting": "[18]", "value": "3.32 µM (active)"},
      {"measurement": "AC50", "setting": "[19]", "value": "67.9 µM (active)"}
    ]},
    {"compound": "Cc1ccnc(N2CCC(C(=O)N(CC3CC3)c3ccc(Cl)cc3)CC2)c1", "values": [
      {"measurement": "IC50", "setting": "[20]", "value": "0.0052 µM (active)"},
      {"measurement": "IC50", "setting": "[21]", "value": "9.1 µM (active)"},
      {"measurement": "IC50", "setting": "[22]", "value": "13.6 µM (inactive)"},
      {"measurement": "IC50", "setting": "[23]", "value": "18.2 µM (inactive)"}
    ]},
    {"compound": "CN1c2ccc(C#Cc3cccnc3)cc2[C@@H]2[C@@H](CCN2C(=O)c2cccc(F)c2)[C@@H]1CO", "values": [
      {"measurement": "AC50", "setting": "[24]", "value": "4.46 µM (active)"}
    ]},
    {"compound": "O=C1NCN(c2ccccc2)C12CCN(CCCOc1ccc(F)cc1)CC2", "note": "[SPIRAMIDE]", "values": [
      {"measurement": "IC50", "setting": "[8]", "value": "5.33 µM (inactive)"},
      {"measurement": "IC50", "setting": "[25]", "value": "> 33.3 µM (inactive)"},
      {"measurement": "IC50", "setting": "[9]", "value": "2.46 µM (active)"},
      {"measurement": "IC50", "setting": "[10]", "value": "0.882 µM (active)"},
      {"measurement": "IC50", "setting": "[11]", "value": "0.242 µM (active)"},
      {"measurement": "IC50", "setting": "[12]", "value": "11.8 µM (inactive)"},
      {"measurement": "IC50", "setting": "[13]", "value": "4.61 µM (active)"},
      {"measurement": "IC50", "setting": "[14]", "value": "8.82 µM (inactive)"},
      {"measurement": "AC50", "setting": "[26]", "value": "39.8 µM (inconclusive)"},
      {"measurement": "IC50", "setting": "[15]", "value": "5.31 µM (inactive)"}
    ]}
  ]
}
